Patent US9387249B2, “Methods of treating hypertension with at least one angiotensin II receptor blocker and chlorthalidone” (Takeda Pharmaceutical Company Limited, priority 2008, dated 2016)

Key:
Assay type in all cases: in vivo, human
[1] = system: patients with stage 2 hypertension; assay: Phase 3 randomized double-blind study: safety (adverse events, laboratory tests)
From the text: More specifically, as will be discussed in more detail below, the purpose of this study is evaluate the change in 24-hour mean systolic blood pressure (SBP) by ambulatory blood pressure monitoring (ABPM) in response to (5-methyl-2-oxo-1,3-dioxol-4-yl)methyl 2-ethoxy-1-{[2′-(5-oxo-4,5-dihydro-1,2,4-oxadiazol-3-yl)biphenyl-4-yl]methyl}-1H-benzimidazole-7-carboxylate potassium salt plus chlorthalidone compared to placebo plus chlorthalidone for 6 weeks in subjects with uncontrolled essential hypertension. Subjects that qualify for the studied will be discontinued from their current antihypertensive medication. After a 2-week run-in-period, subjects who meet the entry criteria will be given (5-methyl-2-oxo-1,3-dioxol-4-yl)methyl 2-ethoxy-1-{[2′-(5-oxo-4,5-dihydro-1,2,4-oxadiazol-3-yl)biphenyl-4-yl]methyl}-1H-benzimidazole-7-carboxylate potassium salt plus chlorthalidone or placebo plus chlorthalidone once daily for 6 weeks. Blood pressure will be monitored during study visits and ABPM will be used to evaluate blood pressure for 24-hour periods twice during the study. Subjects will receive physical examinations including measurement of vital signs and blood and urine samples will be collected (for analyses related to safety monitoring during study visits). […]

[2] = system: patients with stage 2 hypertension; assay: Phase 3 randomized double-blind study: change from baseline in 24-hour mean SBP by ambulatory blood pressure monitoring (ABPM); conditions: Chlorthalidone 25 mg + placebo once daily, oral, 6 weeks
Protocol: (§1) This is a phase 3, multi-center, randomized, parallel group, double-blind, placebo-controlled, study to evaluate the efficacy and safety of (5-methyl-2-oxo-1,3-dioxol-4-yl)methyl 2-ethoxy-1-{[2′-(5-oxo-4,5-dihydro-1,2,4-oxadiazol-3-yl)biphenyl-4-yl]methyl}-1H-benzimidazole-7-carboxylate potassium salt when combined with chlorthalidone 25 mg once daily (QD) in subjects with uncontrolled essential hypertension.
(§2) More specifically, as will be discussed in more detail below, the purpose of this study is evaluate the change in 24-hour mean systolic blood pressure (SBP) by ambulatory blood pressure monitoring (ABPM) in response to (5-methyl-2-oxo-1,3-dioxol-4-yl)methyl 2-ethoxy-1-{[2′-(5-oxo-4,5-dihydro-1,2,4-oxadiazol-3-yl)biphenyl-4-yl]methyl}-1H-benzimidazole-7-carboxylate potassium salt plus chlorthalidone compared to placebo plus chlorthalidone for 6 weeks in subjects with uncontrolled essential hypertension. Subjects that qualify for the studied will be discontinued from their current antihypertensive medication. […] Blood pressure will be monitored during study visits and ABPM will be used to evaluate blood pressure for 24-hour periods twice during the study. […]

[3] = system: patients with stage 2 hypertension; assay: Phase 3 randomized double-blind study: change in clinic SBP; conditions: chlorthalidone plus placebo once daily
Protocol: as §1, §2

| Compound | Effect on the hypokalemia seen with chlorthalidone alone ([1]; azilsartan medoxomil added to chlorthalidone) | Δ from baseline, mean, Absolute, Mean 24-Hour SBP by ABPM [2] [mm Hg] | Absolute reduction in clinic SBP [3] [mm Hg] | Hypokalemia, frequency ([1]; chlorthalidone plus placebo compared with chlorthalidone plus azilsartan medoxomil) |
| --- | --- | --- | --- | --- |
| CCOc1nc2cccc(C(=O)OCc3oc(=O)oc3C)c2n1Cc1ccc(-c2ccccc2-c2noc(=O)[nH]2)cc1.[K] [Azilsartan medoxomil, (5-methyl-2-oxo-1,3-dioxol-4-yl)methyl 2-ethoxy-1-{[2′-(5-oxo-4,5-dihydro-1,2,4-oxadiazol-3-yl)biphenyl-4-yl]methyl}-1H-benzimidazole-7-carboxylate potassium salt] | attenuated the hypokalemia |  |  |  |
| NS(=O)(=O)c1cc(C2(O)NC(=O)c3ccccc32)ccc1Cl (stereo not shown) [Chlorthalidone, 2-chloro-5-(1-hydroxy-3-oxo-1,2-dihydroisoindol-1-yl)-benzenesulfonamide] |  | −15.9 | −21.8 | more frequent |
